Read-outs that look alike come from different tables or passages of the source. A value given as a limit tells only on which side of the number the result lay.

We go through seven compounds from publication PMC6767256, “Leishmania mexicana Trypanothione Reductase Inhibitors: Computational and Biological Studies” (Molecules, 2019).

A short description of data set [1]: in vitro. The following applies: mouse. As for the experimental part:
The cytotoxicity of the five selected compounds was tested using murine macrophage cell line J774.2 (ATCC ®TIB-67). […] For this, macrophages were seeded (5 × 10^4 cells/well) in 96-well flat-bottomed microplates and allowed to adhere for 24 h at 37 °C in 5% CO2. […] Thereafter, 20 µL of a 2.5 mM resazurin solution was added to each well, and the plates were incubated for another 4 h. The fluorescence emission was measured as described above. The half-maximal cytotoxicity concentration (CC50) was determined by Probit analysis.

For data set [2], the system named is L. mexicana promastigotes strain MNYC/BZ/62/M379. As to the kind of experiment: Activity against L. mexicana promastigotes (resazurin method). The settings on record: for SI (selectivity index): SI = CC50/IC50 (J774.2 / L. mexicana promastigotes). (Alamar Blue is a resazurin reagent that responds to reducing activity.)
Procedure: After incubation for 48 h at 26 °C, 20 µL of 2.5 mM resazurin solution was added to each well and incubated for 4 h. […] All assays were carried out in triplicate. The half-maximal inhibitory concentration (IC50) was determined by Probit analysis.
Data set [3] in a line: Solubility in the enzyme assay (observation). The data set is classed as physicochemical. The following applies: prevented testing at higher concentration in the rLmTR assay. As for the experimental part:
(§1) Compounds ZINC04684558, ZINC09642432, ZINC12151998, ZINC14970552, and ZINC11841871 with affinity to the LmTR catalytic site with docking scores of at most −5.29 kcal/mol were selected to evaluate their in vitro inhibition of rLmTR activity. […] The assay was carried out following the conditions previously described to determine the rLmTR activity. The percentage of inhibition was obtained using the following equation:(1) % Inhibition=[…] where A0 is the enzyme activity without inhibitor and A1 is the enzyme activity in the presence of inhibitor.

In data set [4] the test system is recombinant LmTR (rLmTR). As to the kind of experiment: Inhibition of rLmTR activity (NADPH oxidation at 340 nm). The data set is classed as biochemical, Leishmania mexicana. The settings on record: 10% DMSO. Here is the method: (§2) The enzymatic activity of rLmTR was assayed spectrophotometrically as previously described. The reaction mixture contained 40 mM Hepes, pH 7.5, 1 mM EDTA, 150 µM NADPH, and 30 ng rLmTR. The reaction was initiated by adding the substrate (T[S]2) at 400 µM and was allowed to proceed for 1 min. NADPH oxidation was followed at 340 nm, monitored every 20 s, in a Synergy™ H1 microplate reader (Biotek Instruments, Inc. Winooski, VT, USA). The decrease in the absorbance at 340 nm was used to determine the moles of substrate consumed. One unit of enzyme activity is defined as the amount of enzyme required to convert 1 μmol of NADPH to NADP per minute at 25 °C [42].
as §1

Data set [5] has as its system rLmTR. Nature of the data set: Kinetic characterization of rLmTR with substrate T[S]2. The data set is classed as biochemical, Leishmania mexicana. The settings on record: T[S]2 as substrate, 150 µM NADPH. As for the experimental part:
as §2
The kinetic data were analyzed by linear regression fit to Michaelis–Menten kinetics and linearized by the double reciprocal transformation of Lineweaver and Burk.

Setting [6] is: Leishmania mexicana, 48 h, read-out: IC50 (leishmanicidal activity), L. mexicana promastigotes, 48 h at 26 °C.

What is called IC50 is the concentration that inhibits the measured activity by half. Take `CCCCCCCCCCCCCCCCOP(=O)([O-])OCC[N+](C)(C)C` [Miltefosine, reference compound]: in data set [1], the CC50 at 24 h was 141 µM. Moreover, the IC50 in data set [2] (setting [6]) is 2.98 µM. In data set [2], the “SI (selectivity index)” value was 47.
As for `O=C(NCc1ccc2ncccc2c1)c1cnn(-c2ncc3c(n2)-c2ccccc2CCC3)c1C1CC1` [ZINC12151998], the CC50 at 24 h in data set [1] (J774.2 macrophage cell line) was determined as 53 µM. In data set [2] (setting [6]), the IC50 came out at 58 µM. The “SI (selectivity index)” value in data set [2] stood at 0.9. Moreover, the Solubility entry in data set [3] is listed as “poor solubility”. In data set [4] (compound at 100 µM), the “% Inhibition of rLmTR activity” value was 32.9%.
One may read the Km as the substrate concentration at which the rate is half of its maximum. As for `N[C@@H](CCC(=O)N[C@H]1CSSC[C@H](NC(=O)CC[C@H](N)C(=O)O)C(=O)NCC(=O)NCCCNCCCCNC(=O)CNC1=O)C(=O)O` [T[S]2, trypanothione disulfide], the Km in data set [5] is 173 µM.
For the compound `CC1(C)C[C@H](NC(=O)c2cnn(-c3ncc4c(n3)-c3ccccc3CC4)c2C2CC2)CCO1` [ZINC14970552], the CC50 at 24 h in data set [1] (J774.2 macrophage cell line) came to 219 µM. For the same compound, in data set [2] (setting [6]), the IC50 was 147 µM. Also, in data set [2], the “SI (selectivity index)” value turned out to be 1.4. For the same compound, in data set [4] (compound at 300 µM), the “% Inhibition of rLmTR activity” value turned out to be 35.7%.
`CC(=O)N[C@@H]1c2ccccc2C2(CCN(C(=O)c3n[nH]c4ccccc34)CC2)[C@H]1OCc1ccccc1` [ZINC11841871] gave a CC50 at 24 h in data set [1] (J774.2 macrophage cell line) of 103 µM. The IC50 in data set [2] (setting [6]) worked out at 159 µM. The “SI (selectivity index)” value in data set [2] was found to be 0.6. For the same compound, the Solubility entry in data set [3] is on record as “poor solubility”. The “% Inhibition of rLmTR activity” value in data set [4] (compound at 150 µM) was found to be 39.5%.
In data set [1], `C[C@@H]1[C@H](O)[C@@H](C)/C=C/C=C/C=C/C=C/C=C/C=C/C=C/[C@H](O[C@@H]2O[C@H](C)[C@@H](O)[C@H](N)[C@@H]2O)C[C@@H]2O[C@](O)(C[C@@H](O)C[C@@H](O)[C@H](O)CC[C@@H](O)C[C@@H](O)CC(=O)O[C@H]1C)C[C@H](O)[C@H]2C(=O)O` [Amphotericin B, reference compound] showed a CC50 at 24 h of 7.4 µM. The IC50 in data set [2] (setting [6]) was found to be 0.11 µM. Also, in data set [2], the “SI (selectivity index)” value is recorded as 67.
As for `Cc1nnc(N2CCN(C(=O)Nc3ccc(F)cc3F)CC2)c2nn(-c3ccccc3)c(C)c12` [ZINC09642432], the CC50 at 24 h in data set [1] (J774.2 macrophage cell line) came out at 335 µM. The IC50 in data set [2] (setting [6]) is over 200 µM; in data set [2] (read-out: IC50 (leishmanicidal activity), L. mexicana promastigotes, 48 h at 26 °C), 222 µM. In data set [2], the “SI (selectivity index)” value is 1.5. Moreover, in data set [4] (compound at 300 µM), the “% Inhibition of rLmTR activity” value was found to be 40.1%.
